We go through 1 substance from patent publication US11191811B2, “Osteocalcin as a treatment for frailty associated with aging” (THE TRUSTEES OF COLUMBIA UNIVERSITY IN THE CITY OF NEW YORK, priority 2014, dated 2021).

Experiment [1] relates to Gprc6a−/− myotubes. The experiment is described as follows: 14C-oleate (fatty acid) oxidation in myotubes. It is filed as cell-based, mouse. The protocol:
(§1) Glucose and insulin tolerance tests were performed as previously described (Lee et al., 2007, Cell 130:456-469). For in vivo glucose uptake, a bolus of 2-deoxy-d-[^3H]glucose (^3H-2-DG, Perkin Elmer) (10 μCi) was administered before an endurance run. ^3H-2-DG and ^3H-2-DG-6-P content in muscle was determined by liquid scintillation counter and normalized to muscle weight. Glucose uptake and fatty acid oxidation assays in myotubes were performed as previously described (Sebastian et al., 2007, Am. J. Physiol. Endocrinol. Metab. 292:E667-686). GLUT4 translocation was determined by flow cytometry using an antibody against the extracellular domain of the GLUT4 protein (Santa Cruz, Sc-1606). Measurements of oxygen consumption rates (OCR) in isolated myofibers were performed using a XF24 Seahorse Analyzer® (Seahorse Biosciences). To analyze mitochondrial function, myofibers were treated with three compounds in succession (oligomycin 10 μg/ml, FCCP 200 μM, rotenone 0.2 μM) and OCR was recorded following administration of each of them.
Culture of skeletal muscle myoblasts from 7 day-old mice was performed as described (Gharaibeh et al., 2008, Nature Protocols 3:1501-1509). Myoblasts were differentiated into myotubes for 3-4 days in a medium containing 5% horse serum. Muscle fibers were isolated from flexor digitorum brevis muscle. Muscles were dissected with DMEM 2% collagenase for 2 hours at 37° C., in a 5% CO2 incubator. Muscle fibers were disaggregated from the tissue using a wide bore pipet and plated in matrigel-coated plates at approximately 50% confluence. After overnight incubation, isolated myofibers were used.

For another experiment, the system named is Osteocalcin−/− embryos. In words: Brain histology, apoptosis and Western blot of Osteocalcin−/− offspring of injected Osteocalcin−/− mothers. Format: in vivo, mouse. The protocol: FIG. 13. Maternal osteocalcin determines spatial learning and memory in adult offspring. (A-F) DLT (A), EPMT (B), OFT (C), FST (D), TST (E), and MWMT (F) performed in 3-month-old Osteocalcin^−/− mice born from Osteocalcin^−/− mothers injected once a day with vehicle or recombinant uncarboxylated osteocalcin (240 ng/day) during pregnancy compared to WT mice. (G) Surface of the lateral ventricle over brain area (%) of E18.5 hippocampi coronal sections of WT embryos originating from WT mothers and Osteocalcin^−/− embryos originating from osteocalcin-injected Osteocalcin^−/− mothers. (H) Number of apoptotic cells (stained by TUNEL assay) of E18.5 hippocampi coronal sections of WT embryos originating from WT mothers and Osteocalcin^−/− embryos originating from Osteocalcin^−/− mothers injected with osteocalcin (240 ng/day). (I) Cresyl violet, NeuN immunofluorescence, and dentate gyrus area (% versus WT) of WT and Osteocalcin^−/− embryos originating from osteocalcin-injected Osteocalcin^−/− mothers. Scale bars=0.5 mm.
Immunofluorescence of whole adult and embryonic brains was performed on […] coronal cryostat slices of tissue fixed with 4% PFA, embedded in cryomatrix (Tissue-Tek) and stored at −80° C. Sections were allowed to dry at room temperature, post-fixed in 4% PFA followed by permeabilization with 0.1% Triton detergent. After room temperature blocking with donkey serum, sections were incubated with anti-Neun antibody (Millipore) overnight at 4° C. Slides were mounted with Fluorogel (Electron Microscopy Sciences).
Cresyl violet staining to visualize brain morphology was carried out by incubating 20 μm cryosections defatted with 1:1 chloroform:ethanol in cresyl violet acetate (1 g/L) overnight. The stain was differentiated using ethanol and xylene and mounted using DPX mounting medium for histology (Sigma).
To assess apoptosis in WT and Osteocalcin^−/− brains, 20 μm cryostat sections were processed using the APOPTAG® Fluorescein Direct In Situ Apoptosis Detection Kit (Millipore) according to manufacturer's protocol. Images were obtained using Leica DM 4000B, and Image J was used to quantify cell number and intensity of staining.
To further evaluate the importance of maternal osteocalcin for the acquisition of spatial learning and memory in adult offspring, pregnant Osteocalcin^−/− mothers from E0.5 to E18.5 were treated with injections, once a day, of osteocalcin (240 ng/day). Osteocalcin was never injected in these females or their pups after delivery. […] Likewise, the number of apoptotic cells was reduced and the number of NeuN positive cells was increased compared to Osteocalcin^−/− embryos originating from Osteocalcin^−/− mothers that were not injected (FIG. 13I-J).
In general terms: In western blotting, separated proteins are transferred to a membrane and probed.

Another experiment concerns muscle. The experiment is described as follows: S6K phosphorylation and protein synthesis. The note with it: FIG. 23; for protein synthesis: in muscle. The text has this: FIG. 23. Osteocalcin promotes S6K phosphorylation and protein synthesis.
It has been shown that in muscle osteocalcin favors glucose uptake, glycolysis, fatty acid oxidation, and protein synthesis.

Another experiment concerns WT myotubes. In words: 3H-2-deoxyglucose uptake in myotubes. It is filed as cell-based, mouse. As to the method: (§2) The main nutrient used by muscle to generate energy at the onset of exercise is glucose and osteocalcin increased the uptake of ^3H-2-deoxyglucose (^3H-2DG) in WT but not in Gprc6a−/− myotubes (FIG. 26D-E). To exclude the involvement of other secreted molecules, this experiment was performed in serum-free conditions. […] This decrease in glucose uptake in muscles of Gprc6aMck−/− mice provides an explanation for why blood glucose levels were two-fold higher in Gprc6aMck−/− and Gprc6aHsa−/− than in control mice after exercise (FIG. 26G-H).
as §1
(§3) Culture of skeletal muscle myoblasts from 7 day-old mice was performed as described (Gharaibeh et al., 2008, Nature Protocols 3:1501-1509). Myoblasts were differentiated into myotubes for 3-4 days in a medium containing 5% horse serum. Muscle fibers were isolated from flexor digitorum brevis muscle. Muscles were dissected with DMEM 2% collagenase for 2 hours at 37° C., in a 5% CO2 incubator. […]

Experiment [2] deals with Gprc6a−/− myotubes. The experiment is described as follows: 3H-2-deoxyglucose uptake in myotubes. The note with it: serum-free conditions. It is filed as cell-based, mouse. The protocol: as §2, §1, §3
Another experiment deals with wild-type. In words: Glycolysis, extracellular acidification rate (ECAR). It is filed as cell-based, mouse. The conditions noted are these: ECAR (FIG. 20); in muscle. The text has this: FIG. 20. Osteocalcin favors glycolysis. (a) Effect of increasing amounts of uncarboxylated osteocalcin on change in extracellular acidification rate (ECAR) in wild-type mice. The effect of insulin is also shown for comparison. (B) Effect of uncarboxylated osteocalcin on ECAR of wild-type and Gprc6a^−/− mice. (C) L-lactate production in wild-type and Gprc6a^−/− mice.

Where [3] appears, read: E18.5 embryos, versus embryos of mothers not injected.

Take “uncarboxylated osteocalcin: Recombinant uncarboxylated mouse osteocalcin, bacterially produced, purified on glutathione beads and cleaved from the GST subunit by thrombin (YLGASVPSPDPLEPTREQCELNPACDELSDQYGLKTAYKRIYGITI)”: the 14C-oleate oxidation entry in the experiment on Gprc6a−/− myotubes [1] is listed as “could not increase”. Further, the cerebral ventricle enlargement result in the experiment on Osteocalcin−/− embryos (E18.5 Osteocalcin−/− embryos, mothers injected 240 ng/day, cresyl violet) is recorded as “rescue”. Besides, the “Caspase-3 cleaved protein level in the hippocampus” value in the experiment on Osteocalcin−/− embryos (E18.5 embryos, Western blot, versus mothers not injected) is listed as “decrease”. In addition, the “number of NeuN positive cells” value in the experiment with Osteocalcin−/− embryos (setting [3]) is recorded as “increased”. Besides, in the experiment on Osteocalcin−/− embryos (setting [3]), the “number of apoptotic cells” value is “reduced”. The “thickness defect in the CA3 and CA4 regions of the hippocampus” value with Osteocalcin−/− embryos (adult Osteocalcin−/− originating from Osteocalcin−/− mothers) was “rescue”. Besides, the S6K phosphorylation result in the experiment with muscle was “promotes”. In addition, the values for the protein synthesis entry in the experiment with muscle (listed as Osteocalcin) and in the experiment on muscle (listed as osteocalcin) were “promotes” and “favors”, respectively. For the same substance, the “uptake of 3H-2-deoxyglucose (3H-2DG)” value with WT myotubes (WT myotubes, serum-free conditions) is recorded as “increased”; in the experiment on Gprc6a−/− myotubes [2] it was “not”. The glucose uptake entry in the experiment on WT myotubes (as worded in FIG. 19 (wild-type) and summary (in muscle)) is on record as “favors”. The glycolysis result in the experiment with wild-type is reported as “favors”.
